Results taken from ChEMBL document CHEMBL1201862, “PubChem BioAssay data set” (2004).
Calls of active or inactive are those of the source.

Legend:
[1] = target: Serine/threonine-protein phosphatase PP1-alpha catalytic subunit (Homo sapiens, UniProt P62136); experiment: inhibition of protein phosphatase 1 activity – biochemical, fluorescence, dose response (AID 2403);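 note: phosphatase turnover of OMFP into fluorescent 3-O-methylfluorescein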
[2] = target: T1, Serine/threonine-protein phosphatase (Homo sapiens, UniProt Q9BPW0); experiment: Counterscreen for inhibitors of PP1: fluorescence-based biochemical high throughput dose response assay to identify inhibitors of Protein Phosphatase 5 (PP5). [Related pubchem assays: 2034 (Summary (PP5 inhibitors)), 1987 (PP5 inhibitors in singlate), 2235 (PP1 inhibitors in singlate)]
T1 sequence (Q9BPW0 whole entry): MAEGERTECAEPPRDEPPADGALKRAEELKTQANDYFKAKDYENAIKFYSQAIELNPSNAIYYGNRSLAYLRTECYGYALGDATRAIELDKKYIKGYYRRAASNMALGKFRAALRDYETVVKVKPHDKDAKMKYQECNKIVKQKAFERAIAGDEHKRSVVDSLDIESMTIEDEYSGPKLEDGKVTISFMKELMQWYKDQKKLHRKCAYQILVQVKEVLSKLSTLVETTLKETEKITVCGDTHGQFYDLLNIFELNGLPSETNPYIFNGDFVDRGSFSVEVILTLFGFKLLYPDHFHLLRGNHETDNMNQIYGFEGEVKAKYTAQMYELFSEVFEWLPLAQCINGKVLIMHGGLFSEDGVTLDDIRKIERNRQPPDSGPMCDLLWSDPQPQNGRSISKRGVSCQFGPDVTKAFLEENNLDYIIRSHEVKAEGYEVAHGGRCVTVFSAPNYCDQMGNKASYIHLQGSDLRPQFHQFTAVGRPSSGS

[3] = tested on: Streptococcus sp. 'group A'; experiment: Streptococcus pyogenes SK(-)GAS viability under kanamycin – luminescence, BacTiterGlo, confirmation, counter-screen for streptokinase expression inhibitor project, dose response (AID 1900); assay type: functional, organism-based
[4] = tested on: INS1; experiment: INS-1E survival protection against cytokine death – cell-based, luminescence, retest, dose response (AID 449756); assay type: functional; details: Rattus norvegicus;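 note: cell death triggered by IL-1 beta plus TNF-alpha plus IFN-gamma mixture; protective hits raise ATP signal compared with cytokine alone wells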
[5] = tested on: Streptococcus; experiment: GAS UMAA2166 growth inhibition – luminescence, BacTiterGlo, counter-screen for streptokinase expression inhibitor project, dose response (AID 1915); assay type: functional, organism-based;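 note: potency for reduction of bacterial viability or growth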
[6] = Trypanosoma cruzi growth suppression in host cells – NIH3T3 host cells, beta-gal luminescence, confirmation (AID 2044); assay type: functional, cell-based;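 note: intracellular parasites grown in NIH/3T3 mouse fibroblasts as host cells; luminescent beta-galactosidase reporter signal from transgenic T. cruzi replicating inside host cells; inhibitors lower the luminescence signal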
[7] = NIH3T3 cell viability loss – ATP luminescence, mouse fibroblasts, counter-screen, dose response (AID 2010); assay type: functional, cell-based;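 note: cells exposed to compound for about 90 hours before reading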
[8] = target: T2, Rac GTPase-activating protein 1 (Homo sapiens, UniProt Q9H0H5); experiment: blockers of MgcRacGAP-driven Rac1 GTP hydrolysis – biochemical, ADP Hunter fluorescence, primary and confirmatory, confirmation (AID 624330); assay type: functional
T2 sequence (Q9H0H5 whole entry): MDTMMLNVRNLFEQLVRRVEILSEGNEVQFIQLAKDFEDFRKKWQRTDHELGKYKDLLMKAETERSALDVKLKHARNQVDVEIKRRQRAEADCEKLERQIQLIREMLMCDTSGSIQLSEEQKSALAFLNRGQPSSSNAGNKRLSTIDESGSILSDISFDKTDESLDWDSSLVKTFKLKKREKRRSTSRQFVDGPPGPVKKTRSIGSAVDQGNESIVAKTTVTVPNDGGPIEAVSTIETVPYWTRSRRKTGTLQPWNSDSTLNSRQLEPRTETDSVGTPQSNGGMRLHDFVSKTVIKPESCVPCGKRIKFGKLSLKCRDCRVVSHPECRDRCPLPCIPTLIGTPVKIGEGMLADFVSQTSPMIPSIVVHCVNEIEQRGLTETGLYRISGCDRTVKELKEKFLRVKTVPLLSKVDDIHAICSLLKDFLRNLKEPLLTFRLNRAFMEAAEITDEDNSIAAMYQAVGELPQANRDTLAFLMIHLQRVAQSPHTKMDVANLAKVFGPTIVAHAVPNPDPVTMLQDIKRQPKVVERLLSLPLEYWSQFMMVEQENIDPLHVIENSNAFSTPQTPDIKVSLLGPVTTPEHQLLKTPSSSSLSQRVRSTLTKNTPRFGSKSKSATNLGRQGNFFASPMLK

[9] = target: Procathepsin L (Homo sapiens, UniProt P07711)
Chain of Procathepsin L (P07711 whole entry): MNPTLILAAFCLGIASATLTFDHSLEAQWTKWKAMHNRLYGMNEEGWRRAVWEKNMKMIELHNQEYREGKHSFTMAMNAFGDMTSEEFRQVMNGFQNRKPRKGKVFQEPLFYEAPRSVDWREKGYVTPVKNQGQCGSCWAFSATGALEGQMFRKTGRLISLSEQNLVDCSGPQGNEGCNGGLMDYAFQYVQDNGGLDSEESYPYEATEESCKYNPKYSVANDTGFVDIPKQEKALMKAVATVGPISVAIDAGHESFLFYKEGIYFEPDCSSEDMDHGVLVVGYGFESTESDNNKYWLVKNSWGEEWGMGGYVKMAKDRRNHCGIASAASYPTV

[10] = target: Aspartyl aminopeptidase (Plasmodium falciparum 3D7, UniProt Q8I2J3)
Chain of Aspartyl aminopeptidase (Q8I2J3 whole entry): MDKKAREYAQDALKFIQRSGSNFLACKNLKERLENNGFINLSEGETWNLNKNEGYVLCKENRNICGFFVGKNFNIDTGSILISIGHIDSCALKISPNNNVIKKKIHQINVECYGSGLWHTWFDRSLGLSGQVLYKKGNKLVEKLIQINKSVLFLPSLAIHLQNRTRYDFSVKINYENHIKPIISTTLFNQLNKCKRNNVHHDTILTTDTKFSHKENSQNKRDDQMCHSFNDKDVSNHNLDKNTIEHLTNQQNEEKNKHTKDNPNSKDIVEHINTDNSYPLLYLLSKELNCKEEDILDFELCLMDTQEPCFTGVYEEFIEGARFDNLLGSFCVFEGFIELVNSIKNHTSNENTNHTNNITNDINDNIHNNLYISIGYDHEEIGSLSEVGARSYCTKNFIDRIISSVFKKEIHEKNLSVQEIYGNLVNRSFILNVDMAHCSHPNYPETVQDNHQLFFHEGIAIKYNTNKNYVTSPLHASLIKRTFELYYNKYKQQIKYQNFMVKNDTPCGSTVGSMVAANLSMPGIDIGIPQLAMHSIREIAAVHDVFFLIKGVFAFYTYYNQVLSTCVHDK

[11] = HEK-293T cell viability reduction – luminescence, B-cell screen hits, cytotoxicity control for BCR NF-kB inhibitor project, dose response (AID 489021); assay type: functional, cell-based;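 note: HEK-293T cells carrying an NF-kB luciferase reporter; cells exposed to compound for about 14 hours before viability readout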
[12] = viability of PTEN-deleted HCT116 cells – cell-based, HCT116 PTEN knockout, dose response (AID 1047); assay type: functional;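 note: HCT116 colon tumor cells with PTEN knocked out; cells exposed to compound for 60 hours before readout; potency for loss of cell viability measured by luminescence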
[13] = target: T3, Heat shock factor protein 1 (Mus musculus, UniProt P38532); experiment: enhancement of HSF1-driven luciferase signal – cell-based, NIH3T3, luminescence, dose retest, confirmation (AID 435004); assay type: functional;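 note: stress induced by proteasome inhibitor MG132 added 30 min after compound; luciferase reporter driven by HSF1 response element in NIH3T3 cells; actives raise luminescence as potentiators of the MG132 stress response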
T3 sequence (P38532 whole entry): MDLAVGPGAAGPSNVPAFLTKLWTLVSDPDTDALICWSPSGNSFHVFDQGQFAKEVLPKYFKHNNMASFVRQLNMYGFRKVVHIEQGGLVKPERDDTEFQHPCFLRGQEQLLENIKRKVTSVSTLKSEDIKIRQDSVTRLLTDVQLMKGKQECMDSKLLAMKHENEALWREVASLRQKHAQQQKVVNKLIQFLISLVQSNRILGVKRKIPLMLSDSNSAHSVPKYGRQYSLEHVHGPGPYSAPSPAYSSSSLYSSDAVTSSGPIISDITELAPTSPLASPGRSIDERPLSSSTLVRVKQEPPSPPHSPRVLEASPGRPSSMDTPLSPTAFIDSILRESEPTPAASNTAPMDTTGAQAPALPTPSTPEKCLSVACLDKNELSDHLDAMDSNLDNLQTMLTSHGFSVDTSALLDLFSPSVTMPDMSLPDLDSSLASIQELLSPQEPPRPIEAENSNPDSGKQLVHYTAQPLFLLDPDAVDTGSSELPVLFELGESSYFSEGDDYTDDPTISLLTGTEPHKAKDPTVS

[14] = viability of HCT116 lacking mutant beta-catenin – cell-based, human colon tumor, dose response (AID 1045); assay type: functional;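 note: HCT116 colon tumor cells with beta catenin knocked out; cells exposed to compound for 60 hours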
[15] = target: T4, Bcl-2-like protein 10 (Homo sapiens, UniProt Q9HD36); experiment: Concentration-response of Bcl-B inhibitors by biochemical FP with TR3 (AID 1243); assay type: functional
T4 sequence (Q9HD36 whole entry): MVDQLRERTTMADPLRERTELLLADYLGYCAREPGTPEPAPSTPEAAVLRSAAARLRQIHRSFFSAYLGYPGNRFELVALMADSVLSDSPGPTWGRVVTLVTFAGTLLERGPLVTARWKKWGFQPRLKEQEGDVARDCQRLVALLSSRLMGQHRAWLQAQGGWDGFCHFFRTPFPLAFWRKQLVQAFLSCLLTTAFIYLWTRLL

[16] = target: T5, Zinc finger protein mex-5 (Caenorhabditis elegans, UniProt Q9XUB2); experiment: potency of MEX-5 RNA-binding blockers – biochemical, C. elegans, fluorescence polarization, dose response (AID 1960)
T5 sequence (Q9XUB2 whole entry): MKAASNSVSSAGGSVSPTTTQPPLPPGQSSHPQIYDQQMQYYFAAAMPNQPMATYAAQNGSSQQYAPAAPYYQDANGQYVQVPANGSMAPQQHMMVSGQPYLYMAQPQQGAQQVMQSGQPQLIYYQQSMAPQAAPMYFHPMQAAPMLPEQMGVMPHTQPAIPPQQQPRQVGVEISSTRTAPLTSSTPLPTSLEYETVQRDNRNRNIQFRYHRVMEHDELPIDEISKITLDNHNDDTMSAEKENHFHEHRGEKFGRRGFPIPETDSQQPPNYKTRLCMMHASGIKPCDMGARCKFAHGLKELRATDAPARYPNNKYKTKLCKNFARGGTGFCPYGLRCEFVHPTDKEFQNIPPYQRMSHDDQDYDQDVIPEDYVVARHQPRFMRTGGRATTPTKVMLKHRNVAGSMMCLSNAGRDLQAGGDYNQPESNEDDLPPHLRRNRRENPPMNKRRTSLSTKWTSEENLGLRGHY

[17] = target: Large T antigen (Simian virus 40, UniProt P03070); assay type: functional, Betapolyomavirus macacae;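 note: Confirmatory-stage PubChem screen for compounds that inhibit SV40 T antigen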
Chain of Large T antigen (P03070 whole entry, the tested form may be a part): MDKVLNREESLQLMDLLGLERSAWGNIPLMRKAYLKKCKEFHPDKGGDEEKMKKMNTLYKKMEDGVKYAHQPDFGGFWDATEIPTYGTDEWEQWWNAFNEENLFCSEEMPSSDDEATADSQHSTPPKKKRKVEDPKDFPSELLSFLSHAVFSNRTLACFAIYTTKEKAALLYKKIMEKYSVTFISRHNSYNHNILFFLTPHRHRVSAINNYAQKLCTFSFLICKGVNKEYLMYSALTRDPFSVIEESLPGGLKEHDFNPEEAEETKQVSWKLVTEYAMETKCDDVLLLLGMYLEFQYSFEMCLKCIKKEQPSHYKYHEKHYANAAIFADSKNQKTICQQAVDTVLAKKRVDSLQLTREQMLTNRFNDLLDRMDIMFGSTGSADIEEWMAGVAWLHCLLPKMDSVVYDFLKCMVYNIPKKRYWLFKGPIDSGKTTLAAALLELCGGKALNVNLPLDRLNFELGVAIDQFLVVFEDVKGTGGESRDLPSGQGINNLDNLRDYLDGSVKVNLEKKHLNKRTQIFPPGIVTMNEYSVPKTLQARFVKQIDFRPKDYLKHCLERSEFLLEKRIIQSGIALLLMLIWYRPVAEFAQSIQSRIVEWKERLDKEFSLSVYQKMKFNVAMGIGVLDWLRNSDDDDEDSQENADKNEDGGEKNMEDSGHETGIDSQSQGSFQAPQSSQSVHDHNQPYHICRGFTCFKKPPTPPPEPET

[18] = target: T6, RNA-binding protein pos-1 (Caenorhabditis elegans, UniProt G5EF15); experiment: disruptors of C. elegans POS-1 RNA interaction – biochemical, fluorescence polarization, dose response (AID 1964);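 note: purified POS-1 fused to maltose binding protein made in E. coli; potency of compounds blocking POS-1 binding to fluorescent RNA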
T6 sequence (G5EF15 whole entry): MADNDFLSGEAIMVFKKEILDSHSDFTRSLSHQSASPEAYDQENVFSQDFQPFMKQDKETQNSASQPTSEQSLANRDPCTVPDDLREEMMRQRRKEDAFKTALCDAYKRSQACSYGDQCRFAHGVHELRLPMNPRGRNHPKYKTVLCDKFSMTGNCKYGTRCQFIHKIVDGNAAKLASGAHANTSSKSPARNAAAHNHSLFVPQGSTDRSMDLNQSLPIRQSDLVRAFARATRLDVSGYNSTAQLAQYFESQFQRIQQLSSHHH

[19] = target: FAD-linked sulfhydryl oxidase ALR (Homo sapiens, UniProt P55789); experiment: ALR-catalysed DTT oxidation blockers – biochemical, H2O2 detection, luminescence, cherry-pick, dose response (AID 493248)
Chain of FAD-linked sulfhydryl oxidase ALR (P55789 whole entry): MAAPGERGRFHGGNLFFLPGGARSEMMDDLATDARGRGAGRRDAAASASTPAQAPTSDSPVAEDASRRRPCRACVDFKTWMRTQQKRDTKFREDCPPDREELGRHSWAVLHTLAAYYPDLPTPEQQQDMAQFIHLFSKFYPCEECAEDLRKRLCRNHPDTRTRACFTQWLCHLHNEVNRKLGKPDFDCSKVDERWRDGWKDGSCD

[20] = cells; assay type: functional, cell-based
[21] = cells; assay type: functional, cell-based; remark: listed apart in the source
[22] = target: Genome polyprotein (dengue virus type 2, UniProt P29990); experiment: flavivirus cap methylation enzyme inhibition – biochemical, confirmation dose response, primary screen (AID 588689); assay type: functional
Chain of Genome polyprotein (P29990 2492-3391 limits assumed): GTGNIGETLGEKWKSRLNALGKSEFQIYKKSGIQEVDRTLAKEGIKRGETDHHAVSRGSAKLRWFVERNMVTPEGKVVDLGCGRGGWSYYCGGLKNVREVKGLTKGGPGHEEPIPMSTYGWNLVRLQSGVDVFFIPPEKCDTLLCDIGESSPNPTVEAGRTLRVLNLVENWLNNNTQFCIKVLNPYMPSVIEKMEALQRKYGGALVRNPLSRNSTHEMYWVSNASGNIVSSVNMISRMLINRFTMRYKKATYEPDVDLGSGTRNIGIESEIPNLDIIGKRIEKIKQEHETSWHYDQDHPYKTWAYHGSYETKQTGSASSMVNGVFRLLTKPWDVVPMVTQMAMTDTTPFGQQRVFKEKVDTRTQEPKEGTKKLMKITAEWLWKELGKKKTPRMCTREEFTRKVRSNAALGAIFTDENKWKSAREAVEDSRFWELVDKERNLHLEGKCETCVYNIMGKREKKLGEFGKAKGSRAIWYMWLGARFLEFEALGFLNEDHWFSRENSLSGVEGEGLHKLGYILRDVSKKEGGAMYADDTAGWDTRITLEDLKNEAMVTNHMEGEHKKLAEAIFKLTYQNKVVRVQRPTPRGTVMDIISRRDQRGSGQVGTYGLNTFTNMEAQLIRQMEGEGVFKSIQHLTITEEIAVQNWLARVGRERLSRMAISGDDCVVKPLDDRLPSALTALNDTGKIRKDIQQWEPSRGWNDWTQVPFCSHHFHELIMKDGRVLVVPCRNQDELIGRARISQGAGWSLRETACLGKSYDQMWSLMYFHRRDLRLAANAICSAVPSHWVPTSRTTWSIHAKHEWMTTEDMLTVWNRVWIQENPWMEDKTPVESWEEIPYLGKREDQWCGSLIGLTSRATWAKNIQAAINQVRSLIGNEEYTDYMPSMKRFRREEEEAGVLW

[23] = target: NS3 (Hepatitis C virus, UniProt A3EZJ3); experiment: PubChem AID 2173; set-up: species or system Hepacivirus hominis
Chain of NS3 (A3EZJ3 whole entry): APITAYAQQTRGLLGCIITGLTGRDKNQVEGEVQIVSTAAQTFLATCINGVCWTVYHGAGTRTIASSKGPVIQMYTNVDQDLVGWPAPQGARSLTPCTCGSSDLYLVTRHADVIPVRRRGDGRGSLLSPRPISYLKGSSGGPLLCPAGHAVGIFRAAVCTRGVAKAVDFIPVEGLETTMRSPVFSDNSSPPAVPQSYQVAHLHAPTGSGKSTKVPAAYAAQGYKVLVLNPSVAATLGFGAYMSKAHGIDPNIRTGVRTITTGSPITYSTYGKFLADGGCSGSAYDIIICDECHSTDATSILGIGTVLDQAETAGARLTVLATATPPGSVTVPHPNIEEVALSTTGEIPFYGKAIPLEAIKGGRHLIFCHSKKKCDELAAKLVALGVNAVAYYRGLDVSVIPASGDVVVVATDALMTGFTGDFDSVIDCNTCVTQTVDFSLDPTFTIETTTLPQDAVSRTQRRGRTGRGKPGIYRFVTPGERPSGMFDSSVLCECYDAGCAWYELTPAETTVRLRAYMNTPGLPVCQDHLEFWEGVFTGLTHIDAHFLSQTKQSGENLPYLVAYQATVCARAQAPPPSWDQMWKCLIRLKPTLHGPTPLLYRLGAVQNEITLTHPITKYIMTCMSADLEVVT

[24] = target: Melanin-concentrating hormone receptor 1 (Homo sapiens, UniProt Q99705); experiment: Late-stage fluorescence-based counterscreen for antagonists of the G-protein coupled receptor 7 (GPR7): cell-based dose response assay to identify antagonists of the melanin-concentrating hormone receptor 1 (MCHR1). [Related pubchem assays (depositor defined):AID1861, AID1880, AID1952, AID2148, AID2251, AID2257, AID485339]; assay type: functional;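 note: stimulated with 30 nM MCH peptide agonist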
Chain of Melanin-concentrating hormone receptor 1 (Q99705 whole entry): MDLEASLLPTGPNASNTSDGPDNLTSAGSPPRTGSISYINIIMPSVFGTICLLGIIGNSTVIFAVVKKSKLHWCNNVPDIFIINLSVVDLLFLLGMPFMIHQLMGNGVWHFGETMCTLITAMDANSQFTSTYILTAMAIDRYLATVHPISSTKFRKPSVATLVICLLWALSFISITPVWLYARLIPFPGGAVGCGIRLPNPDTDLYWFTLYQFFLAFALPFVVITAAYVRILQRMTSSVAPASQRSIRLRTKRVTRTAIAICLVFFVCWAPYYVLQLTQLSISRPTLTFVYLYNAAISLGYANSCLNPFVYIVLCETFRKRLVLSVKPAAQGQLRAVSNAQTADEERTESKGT

[25] = target: Voltage-gated N-type calcium channel alpha-1B subunit/Amyloid beta A4 precursor protein-binding family A member 1 (Homo sapiens, UniProt Q00975+Q02410); experiment: disruptors of Mint-PDZ/N-type channel peptide interaction – biochemical, HTRF, set 2, SAR follow-up (AID 434980); assay type: functional
[26] = target: T7, Streptokinase A (Streptococcus pyogenes serotype M1, UniProt P10520); experiment: viability-normalized secreted streptokinase activity reduction – plasminogen activation absorbance, OD405, dose response (AID 1914); assay type: functional, Streptococcus pyogenes M1 GAS;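 note: secreted streptokinase activity via plasminogen activation per viability signal from cell pellet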
T7 sequence (P10520 whole entry): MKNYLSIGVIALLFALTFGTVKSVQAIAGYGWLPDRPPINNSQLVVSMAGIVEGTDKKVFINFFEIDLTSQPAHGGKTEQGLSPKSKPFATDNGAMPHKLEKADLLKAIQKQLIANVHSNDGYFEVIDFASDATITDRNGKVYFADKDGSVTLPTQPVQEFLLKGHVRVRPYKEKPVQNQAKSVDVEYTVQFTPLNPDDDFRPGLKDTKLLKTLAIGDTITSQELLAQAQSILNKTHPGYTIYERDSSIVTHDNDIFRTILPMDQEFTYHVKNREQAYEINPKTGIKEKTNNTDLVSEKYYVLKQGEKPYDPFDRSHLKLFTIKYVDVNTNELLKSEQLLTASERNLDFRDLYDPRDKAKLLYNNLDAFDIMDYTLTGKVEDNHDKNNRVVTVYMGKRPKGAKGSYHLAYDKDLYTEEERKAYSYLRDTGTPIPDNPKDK

[27] = target: Nonstructural protein 1 (Influenza A virus, UniProt Q194T2); assay type: functional, Influenza A virus (A/California/07/2009(H1N1))
Chain of Nonstructural protein 1 (Q194T2 whole entry): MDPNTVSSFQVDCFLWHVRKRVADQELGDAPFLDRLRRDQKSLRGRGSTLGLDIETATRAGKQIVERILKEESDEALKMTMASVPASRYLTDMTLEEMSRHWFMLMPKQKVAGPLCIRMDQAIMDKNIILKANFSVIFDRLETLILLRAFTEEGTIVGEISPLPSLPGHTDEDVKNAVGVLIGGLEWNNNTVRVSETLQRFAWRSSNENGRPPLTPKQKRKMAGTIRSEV

Chain of Serine/threonine-protein phosphatase PP1-alpha catalytic subunit (P62136 whole entry): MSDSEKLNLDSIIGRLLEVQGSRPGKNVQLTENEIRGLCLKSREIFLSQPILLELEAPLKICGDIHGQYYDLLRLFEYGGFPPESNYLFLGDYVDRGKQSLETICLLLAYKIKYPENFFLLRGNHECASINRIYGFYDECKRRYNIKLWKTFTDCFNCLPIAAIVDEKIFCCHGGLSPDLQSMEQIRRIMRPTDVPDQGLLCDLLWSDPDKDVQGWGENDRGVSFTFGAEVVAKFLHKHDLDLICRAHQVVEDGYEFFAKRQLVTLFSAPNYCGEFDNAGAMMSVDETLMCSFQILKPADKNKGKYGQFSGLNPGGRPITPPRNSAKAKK

Structure (SMILES): CCOC(=O)c1cnc(-n2nc(C)cc2C)nc1NC(C)c1ccccc1 (stereo not given)
- IC50 [1]: 5.88 µM (active)
- IC50 [2]: > 67 µM (not active)
- EC50 [3]: 5.04 µM (active)
- AC50 [4]: 4.89 µM (active)
- EC50 [5]: 5.89 µM (active)
- EC50 [6]: 1.46 µM (active)
- EC50 [7]: > 60 µM (not active)

Structure (SMILES): O=C(/C=C/c1ccc(O)c(O)c1)NC(=O)c1ccccc1O
- IC50 [8]: 20.2 µM (active)
- IC50 [9]: > 59.6 µM (not active)
- IC50 [10]: 1.47 µM (active)

Structure (SMILES): COc1ccc2[nH]c(Sc3c([N+](=O)[O-])nc(C)n3Cc3ccccc3)nc2c1
- IC50 [11]: > 80 µM (inactive)
- EC50 [12]: 9.43 µM (active)
- EC50 [13]: 8.34 µM (active)
- EC50 [14]: 8.94 µM (active)

Structure (SMILES): COc1cc(N)ccc1-n1c(C)ccc1C
- EC50 [15]: 32.9 µM (active)

Structure (SMILES): Oc1ccc(-c2cn3ccccc3n2)cc1O
- EC50 [16]: 13.6 µM (active)
- IC50 [17]: 5.28 µM (active)
- IC50 [9]: > 59.6 µM (not active)
- EC50 [18]: > 300 µM (not active)
- AC50 [19]: 1.32 µM (active)
- IC50 [10]: 2.56 µM (active)
- EC50 [20]: > 350 µM (not active)
- EC50 [21]: 25.3 µM (active)

Structure (SMILES): Cc1cc(N2C(=O)C(O)=C(C(=O)c3ccco3)C2c2cccc(Oc3ccccc3)c2)no1 (stereo not given)
- IC50 [22]: 64.6 µM (active)
- IC50 [23]: 2.64 µM (active)

Structure (SMILES): Clc1ccc(-n2nnnc2-c2cnc(-c3ccccn3)nc2-c2cccs2)cc1
- IC50 [1]: 4.64 µM (active)
- IC50 [2]: > 67 µM (not active)

Structure (SMILES): Cc1ccccc1CN1CCCCC1C(=O)N1CCN(c2ccc([N+](=O)[O-])cc2)CC1 (stereo not given)
- IC50 [24]: 5.8 µM (active)

Structure (SMILES): CC(C)(C)CCNC(=O)c1cc(-c2ccco2)nc2ccccc12
- IC50 [25]: > 56.8 µM (inactive)

Structure (SMILES): CC1=C(C#N)c2nc(N)c(C#N)c(C)c2/C1=C/c1ccc(-c2ccc(C(=O)O)c(Cl)c2)o1
- EC50 [15]: 1.65 µM (active)

Structure (SMILES): COc1ccc(/C=N\NC(=O)c2cc(O)c(O)c(O)c2)cc1COc1ccc(C(=O)OCC(C)C)cc1
- EC50 [26]: > 150 µM (not active)
- EC50 [3]: 6.26 µM (active)
- IC50 [27]: 78.6 µM (active)
- EC50 [5]: 6.69 µM (active)
- IC50 [23]: 4.44 µM (active)
